Measured values taken from patent US20240254121A1, “ALKYLAMIDE SUBSTITUTED, ANNULATED IMIDAZOLES AND USE THEREOF AS INSECTICIDES” (Bayer Aktiengesellschaft, priority 2021, published 2024).

Legend:
Format in all cases: in vivo
[1] = system: fall armyworm larvae (Spodoptera frugiperda); test: Spodoptera frugiperda spray test; settings: 168 h, maize leaf sections, after 7 days
Experimental: Spodoptera frugiperda—Spray Test • Solvent: 78.0 parts by weight acetone • 1.5 parts by weight dimethylformamide • Emulsifier: alkylarylpolyglycol ether
(§1) To produce a suitable preparation of active compound, 1 part by weight of active compound is mixed with the stated amount of solvents and is diluted with water, containing an emulsifier concentration of 1000 ppm, to the desired concentration. Further test concentrations are prepared by dilution with emulsifier containing water.
Maize (Zea mays) leaf sections are sprayed with a preparation of the active ingredient of the desired concentration. Once dry, the leaf sections are infested with fall armyworm larvae (Spodoptera frugiperda).
After 7 days mortality in % is determined. 100% means all caterpillars have been killed and 0% means none of the caterpillars have been killed.

[2] = system: brown planthopper (Nilaparvata lugens); test: Nilaparvata lugens spray test; settings: 96 h, rice plants, after 4 days
Experimental: Nilaparvata lugens—Spray Test • Solvent: 78.0 parts by weight of acetone • 1.5 parts by weight of dimethylformamide • Emulsifier: alkylarylpolyglycol ether
as §1
Rice plants (Oryza sativa) are sprayed with a preparation of the active ingredient of the desired concentration and the plants are infested with the brown planthopper (Nilaparvata lugens).
After 4 days mortality in % is determined. 100% means all planthoppers have been killed and 0% means none of the planthoppers have been killed.

[3] = system: adult flies Musca domestica strain WHO-N; test: Musca domestica test (MUSCDO surface treatment & contact assay); settings: 24 hours after contact, read-out: efficacy (mortality); for mortality at 20 mg/m2: surface concentration 20 mg/m^2, 30 minutes exposure
Experimental: Musca domestica Test (MUSCDO Surface Treatment & Contact Assay) • Solvent: Aceton+2000 ppm rapeseed oil methyl ester (RME)
(§2) In order to produce a sufficient, active ingredient containing solution it is necessary to solve the test compound in the solvent-mix (acetone at 2 mg/ml/RME 2000 ppm). This solution is pipetted onto a glazed tile and after evaporation of the acetone, adult flies of the species Musca domestica strain WHO-N are placed onto the dried surface. The exposure time is 30 minutes. Mortality in percent (%) is determined 24 hours after contact of the insects to the treated surface. 100% mortality means that all tested insects are dead, whereas 0% means that no insect died.

[4] = system: cattle tick larvae (Rhipicephalus microplus); test: Rhipicephalus (Boophilus) microplus in-vitro contact test, larval cattle tick (strain Parkhurst, resistant against synthetic pyrethroids); settings: after 48 hours, read-out: efficacy (larvae dead or moribund); for pest or weed control at 1 µg/cm2, 100 g/ha: 1 μg/cm^2 (=100 g/ha); for pest or weed control at 5 µg/cm2, 500 g/ha: 5 μg/cm^2 (=500 g/ha)
Experimental: Rhipicephalus (Boophilus) Microplus—In-Vitro Contact Tests Larval Cattle Tick (Strain Parkhurst, Resistant Against Synthetic Pyrethroids)
9 mg compound is solved in 1 mL acetone and diluted with acetone to the desired concentration. 250 μL of the test solution is filled in 25 mL glass test tubes and homogeneously distributed on the inner walls by rotation and tilting on a shaking device (2 h at 30 rpm). With a compound concentration of 900 ppm, an inner surface of 44.7 cm^2 and a homogeneous distribution, a dose of 5 μg/cm^2 is achieved.
After the solvent has evaporated, each test tube is filled with 20-50 cattle tick larvae (Rhipicephalus microplus), closed with a perforated lid and incubated in a horizontal position at 85% relative humidity and 27° C. in an incubator. After 48 hours efficacy is determined. The larvae are patted on the ground of the tubes and negative geotactic behavior is recorded.
An efficacy of 100% means all larvae are dead or moribund; 0% means no larvae are dead or moribund.

[5] = system: adult engorged female ticks (Rhipicephalus microplus); test: Rhipicephalus (Boophilus) microplus injection test; settings: 4 μg/tick, egg deposition after 7 days
Experimental: Rhipicephalus (Boophilus) Microplus—Injection Test
• Solvent: Dimethyl Sulfoxide
To produce a suitable preparation of active compound, 10 mg of active compound are dissolved in 0.5 mL solvent, and the concentrate is diluted with solvent to the desired concentration.
Five adult engorged female ticks (Rhipicephalus microplus) are injected with 1 μL compound solution into the abdomen. The ticks are transferred into replica plates and incubated in a climate chamber.
After 7 days egg deposition of fertile eggs is monitored. Eggs where fertility is not visible are stored in a climate chamber till hatching after about 42 days. An efficacy of 100% means all eggs are infertile; 0% means all eggs are fertile.

[6] = system: adult mosquitoes Aedes aegypti strain MONHEIM; test: Aedes aegypti test (AEDSAE surface treatment & contact assay); settings: 24 hours after contact, read-out: efficacy (mortality); for mortality at 20 mg/m2: surface concentration 20 mg/m^2, 30 minutes exposure; for mortality at 4 mg/m2: surface concentration 4 mg/m^2, 30 minutes exposure
Experimental: Aedes aegypti Test (AEDSAE Surface Treatment & Contact Assay) • Solvent: Aceton+2000 ppm rapeseed oil methyl ester (RME)
as §2, with “mosquitoes” for “flies”, “Aedes aegypti” for “Musca domestica”, “MONHEIM” for “WHO-N”

[7] = system: larvae of the banded cucumber beetle (Diabrotica balteata); test: Diabrotica balteata spray test; settings: 168 h, 100 g/ha (=32 μg/well), wheat seeds, after 7 days, read-out: efficacy (seedling growth)
Experimental: Diabrotica Balteata—Spray Test
• Solvent: 78.0 Parts by Weight of Acetone • 1.5 parts by weight of dimethylformamide • Emulsifier: Alkylarylpolyglycol Ether
as §1, with “solvent,” for “solvents”, “and the concentrate” for “and”
Soaked wheat seeds (Triticum aestivum) are placed in a multiple well plate filled with agar and some water and are incubated for 1 day to germinate (5 seeds per well). The germinated wheat seeds are sprayed with a test solution containing the desired concentration of the active ingredient. Afterwards each unit is infected with 10-20 larvae of the banded cucumber beetle (Diabrotica balteata).
After 7 days efficacy in % is determined. 100% means all the seedlings have grown up like in the untreated, uninfected control; 0% means none of the seedlings have grown.

[8] = system: adult unfed cat fleas (Ctenocephalides felis); test: Ctenocephalides felis oral test; settings: 48 h, 100 ppm in citrated cattle blood, after 2 days
Experimental: Ctenocephalides felis—Oral Test • Solvent: Dimethyl Sulfoxide
To produce a suitable preparation of active compound, 10 mg of active compound are dissolved in 0.5 mL solvent, and the concentrate is diluted with citrated cattle blood to the desired concentration.
Approximately 20 adult unfed cat fleas (Ctenocephalides felis) are placed in a flea chamber whose top and bottom is covered with gauze. A chamber whose bottom is sealed with parafilm, is filled with the blood-compound solution and placed on top of the flea chamber, so that the fleas can suck the blood. The blood chamber is heated to 37° C. whereas the flea chamber is kept at room temperature.
After 2 days mortality in % is determined. 100% means all the fleas have been killed; 0% means none of the fleas have been killed.

[9] = system: green peach aphid (Myzus persicae); test: Myzus persicae spray test; settings: foliar, 120 h, 100 g/ha, Chinese cabbage leaf disks, after 5 days
Experimental: Myzus persicae—Spray Test • Solvent: 78.0 parts by weight acetone • 1.5 parts by weight dimethylformamide • Emulsifier: alkylarylpolyglycol ether
as §1
Chinese cabbage (Brassica pekinensis) leaf disks infected with all instars of the green peach aphid (Myzus persicae), are sprayed with a preparation of the active ingredient of the desired concentration.
(§3) After 5 days mortality in % is determined. 100% means all aphids have been killed and 0% means none of the aphids have been killed.

[10] = system: adult mosquitoes Culex quinquefasciatus strain P00; test: Culex quinquefasciatus test (CULXFA surface treatment & contact assay); settings: 24 hours after contact, read-out: efficacy (mortality)
Experimental: Culex quinquefasciatus Test (CULXFA Surface Treatment & Contact Assay) • Solvent: Aceton+2000 ppm rapeseed oil methyl ester (RME)
as §2, with “2,000” for “2000”, “mosquitoes” for “flies”, “Culex quinquefasciatus” for “Musca domestica”, “P00” for “WHO-N”

[11] = system: larvae of the southern green stink bug (Nezara viridula); test: Nezara viridula spray test; settings: 96 h, barley plants, after 4 days
Experimental: Nezara viridula—Spray Test • Solvent: 78.0 parts by weight of acetone • 1.5 parts by weight of dimethylformamide • Emulsifier: alkylarylpolyglycol ether
as §1, with “solvent,” for “solvents”, “and the concentrate” for “and”
Barley plants (Hordeum vulgare) are sprayed with a test solution containing the desired concentration of the active ingredient and are infested with larvae of the southern green stink bug (Nezara viridula).
After 4 days mortality in % is determined. 100% means all the stink bugs have been killed; 0% means none of the stink bugs have been killed.

[12] = system: southern root-knot nematode (Meloidogyne incognita); test: Meloidogyne incognita test; settings: 20 ppm, lettuce, after 14 days
Experimental: Meloidogyne Incognita—Test
• Solvent: 125.0 parts by weight of acetone
(§4) To produce a suitable preparation of active compound, 1 part by weight of active compound is mixed with the stated amount of solvent, and the concentrate is diluted with water to the desired concentration.
Vessels are filled with sand, a solution of the active ingredient, a suspension containing eggs and larvae of the southern root-knot nematode (Meloidogyne incognita) and lettuce seeds. The lettuce seeds germinate and the seedlings grow. Galls develop in the roots.
After 14 days the nematicidal effect in percent is determined by the formation of galls. 100% means no galls were found and 0% means the number of galls found on the roots of the treated plants was equal to that in untreated control plants.

[13] = system: cotton aphid (Aphis gossypii); test: Aphis gossypii oral test; settings: 120 h, after 5 days
Experimental: Aphis gossypii—Oral Test • Solvent: 100 Parts by Weight Acetone
as §4
(§5) 50 μL compound solution is filled in microtiter plates and 150 μL IPL41 insect medium (33%+15% sugar) is added to obtain a total volume of 200 μL per well. Afterwards the plates are sealed with parafilm through which a mixed population of the cotton aphid (Aphis gossypii) can suck on the compound preparation.
as §3

[14] = system: green peach aphid (Myzus persicae); test: Myzus persicae oral test; settings: 120 h, after 5 days
Experimental: Myzus persicae—Oral Test • Solvent: 100 parts by weight acetone
as §4
as §5, with “green peach” for “cotton”, “(Myzus persicae)” for “(Aphis gossypii)”
as §3

[15] = surface concentration 4 mg/m^2, 30 minutes exposure

Compound	mortality at 100 g/ha [1] [%]	mortality at 500 g/ha [2] [%]	mortality at 20 mg/m2 [3] [%]	pest or weed control at 1 µg/cm2, 100 g/ha [4] [%]	pest or weed control at 5 µg/cm2, 500 g/ha [4] [%]	efficacy (infertile eggs) [5] [%]	mortality at 20 mg/m2 [6] [%]	pest or weed control at 32 µg/disc, 100 g/ha [7] [%]	mortality at 100 ppm [8] [%]	mortality at 4 mg/m2 [3, 15] [%]	mortality at 100 g/ha [9] [%]	mortality at 4 mg/m2 [6] [%]	mortality at 4 mg/m2 [10, 15] [%]	mortality at 20 mg/m2 ([10]; surface concentration 20 mg/m^2, 30 minutes exposure) [%]	mortality at 500 g/ha [11] [%]	nematicidal effect (formation of galls) [12] [%]	mortality at 100 ppm [13] [%]	mortality at 20 ppm [14] [%]
C[C@H](NC(=O)c1cc(OC(F)(F)F)cc(C(C)(C)C#N)c1)c1nc2cccnc2n1-c1ccc(C#N)cn1 [Example I-1]	100	100	80 to 100	90	80	100	80 to 100	100	100									
C[C@H](NC(=O)c1cc(OC(F)(F)F)cc(C2(C#N)CC2)c1)c1nc2cccnc2n1-c1ccc(C#N)cn1 [Example I-3]	100	90	80 to 100	90	90	100	80 to 100	100		80 to 100	100	80 to 100	80 to 100	80 to 100	100			
CNC(=O)c1ccc(-n2c(C(C)NC(=O)c3cc(C(F)(F)F)cc(C(F)(F)F)c3)nc3cccnc32)nc1 (stereo not drawn) [Example I-25]															100	90		
CNC(=O)c1ccc(-n2c(C(C)NC(=O)c3cc(OC(F)(F)F)cc(OC(F)(F)F)c3)nc3cccnc32)nc1 (stereo not drawn) [Example I-27]												80 to 100				90	100	100
C[C@H](NC(=O)c1cc(OC(F)(F)F)cc(S(C)(=O)=O)c1)c1nc2cc(F)cnc2n1-c1ccc(C#N)cn1 [Example I-38]	100							100							100	90		
